According to US12508280B2, “Formulations for improving gut health” (DSM IP ASSETS B.V., priority 2018, dated 2025):
Where a name gives a salt, the structure may show the parent alone.

Tests used:
[1] = tested on: Co-cultures of Caco-2 and HT29-MTX-E12 cells; experiment: Barrier integrity, leaky gut model, apical stressor Rhamnolipids; type: cell-based; conditions: 5× dose; 48 h minus 0 h fermentation samples; vs corresponding control
Protocol: Since ethanol is known to have antimicrobial effects, two blanks for each type of stock solution were included. As a source of the microbial community, a freshly prepared fecal suspension from the selected donor was added to the reactors. […] All tests, except the blanks, were performed in single repetition, resulting in 40 independent incubations, as specified in Table 1. Incubation conditions of the pre-screening experiment and the final experiment were 48 h at 37° C., under shaking (90 rpm) and anaerobic conditions. […] Effluent samples were collected from each fermentation flask before (0 h fermentation) and after fermentation (48 h fermentation), sterilized by filtering through 0.22 μm filters and used for short chain fatty acids (SCFA), quantification of immunological biomarkers and in vitro analysis in cell culture systems.
Co-cultures of Caco-2 and HT29-MTX-E12 cells were used to assess the protective effect of the supernatants before (0 h) and after fermentation (48 h) for both sets of in vitro experiments above.
CaCo-2 ECACC 86010202 and HT29-MTX-E12 ECACC 12040401 cells (both from European Collection of Cell Cultures, Salisbury, UK) were both cultured at 37° C., in atmosphere of 5% CO2 in DMEM medium supplemented with 4.5 g/L D-Glucose, 4 mM L-Glutamine, 1 mM Sodium Pyruvate, 1% MEM Non-Essential Amino Acids, 50 μg/mL Gentamicin (Life Technologies Europe B.V., Zug, Switzerland) and 10% heat-inactivated FBS (Sigma-Aldrich, Buchs, Switzerland). Sub-confluent cells were trypsinized using 0.25% Trypsin/EDTA (Life Technologies Europe B.V., Zug, Switzerland) and passaged at a ratio of 1:5-1:10 twice a week. Cells between passages 55 and 85 were used for this study.
Cells were seeded at a density of 20000 cells/well in a 7:3 ratio (Caco-2:HT29-MTX-E12) in Corning HTS Transwell-24 system PET membranes, 0.4 μM pore size, cell growth area 0.33 cm2/well (Corning BV, Amsterdam, Netherlands) and cultured as described above. Media was changed every second to third day.
For both sets of in vitro experiments, the integrity of cell monolayers after the stressor test was evaluated by both TEER values and by measuring the transport of Lucifer yellow from apical to basolateral compartments (Leaky gut model). A prewarmed HBSS transport buffer composed of Hank's Balanced Salt Solution pH 7.4 with Ca2+ and Mg2+, containing 5.5 mM D-(+)-glucose, Sodium Bicarbonate, and supplemented with 4 mM L-glutamine, 20 mM HEPES (Life Technologies Europe B.V., Zug, Switzerland) was used for all permeability experiments. The inserts were rinsed twice with HBSS using a reservoir tray, 100 μl HBSS were then added to the apical site of the inserts and subsequently moved to new wells with fresh HBSS and allowed to equilibrate at 37° C. for 60 min in the incubator followed by TEER measurement to obtain baseline resistance readings.
Lucifer Yellow CH dilithium salt (Sigma-Aldrich, Buchs, Switzerland) was dissolved in HBSS at a final concentration of 100 μg/ml. Basolateral stressor EtOH (Merck, KgaA, Darmstadt, Germany) was diluted to 5% in HBSS. Apical Stressor Rhamnolipids R90 (AGAE Technologies, Corvallis, USA) was dissolved in HBSS containing Lucifer Yellow at a final concentration of 350 μg/ml. All solutions were prepared freshly each time.
The HBSS transport buffer from the basolateral chamber was aspirated first, then the HBSS from the apical chamber and replaced with Lucifer yellow solution. For the apical stressor test, Lucifer yellow solution containing 350 μg/ml Rhamnolipids or Lucifer yellow solution without stressor for the control wells was loaded into the apical compartment, blank HBSS was subsequently added to the basolateral chamber.

[2] = tested on: fecal microbial community; experiment: Microbiome composition by shotgun sequencing: alpha diversity (first set); type: cell-based, human; conditions: after 24 h fermentation, vs corresponding control
Protocol: (§1) Since ethanol is known to have antimicrobial effects, two blanks for each type of stock solution were included. As a source of the microbial community, a freshly prepared fecal suspension from the selected donor was added to the reactors. […] All tests, except the blanks, were performed in single repetition, resulting in 40 independent incubations, as specified in Table 1. Incubation conditions of the pre-screening experiment and the final experiment were 48 h at 37° C., under shaking (90 rpm) and anaerobic conditions. DNA were extracted from effluent samples collected from each fermentation flask before (0 h fermentation) and after fermentation (24 h fermentation) and use for microbiome composition analysis by Shotgun sequencing. Effluent samples were collected from each fermentation flask before (0 h fermentation) and after fermentation (48 h fermentation), sterilized by filtering through 0.22 μm filters and used for short chain fatty acids (SCFA), quantification of immunological biomarkers and in vitro analysis in cell culture systems.
(§2) For the first set of in vitro experiments, total DNA was extracted from all samples collected throughout the study using the QIAamp DNA stool minikit (Qiagen, Crawley, United Kingdom) according to the manufacturer's instructions, apart from addition of a bead-beating step and increasing the lysis temperature to 95° C. as described previously (McCormack et al., 2018).
(§3) After DNA isolation, DNA was quantified using the Qubit High Sensitivity DNA assay (Thermo Fisher). Whole metagenome libraries were then prepared using the Illumina Nextera XT kit (Illumina) in accordance with the manufacturer's instructions, with the following modifications: Firstly, tagmentation time was increased to 7 min and secondly, following incorporation of indices and Ampure purification of the products, the samples were each individually sized by running on an Agilent High Sensitivity Chip (Agilent) and quantified using the Qubit High Sensitivity DNA assay (Thermo Fisher) in accordance with Teagasc Sequencing Platform SOPs. The samples were then pooled equimolarly and sequenced on the Illumina NextSeq 500 with a NextSeq 500/550 v2 high-output reagent kit (300 cycles). All sequencing was done in the Teagasc sequencing facility in accordance with standard Illumina sequencing protocols.
(§4) Delivered raw FASTQ sequence files were quality checked as follows: poor quality and duplicate read removal, as well as trimming was implemented using a combination of SAM and Picard tools. Taxonomy was assigned to the reads using the Kraken software and functional analysis was performed with Super focus.

Bifidobacterium = experiment: Microbiome composition by shotgun sequencing: Bifidobacterium (first set); type: cell-based, human; conditions: after 24 h fermentation, vs corresponding control
Protocol: as §1, §2, §3, §4

[3] = tested on: fecal suspension from the selected donor; experiment: Intestinal batch fermentation, SCFA production (first set); type: cell-based, human; conditions: after 48 h fermentation, vs corresponding control
Protocol: In a first set of in vitro experiments at the start of intestinal batch fermentation incubation, all test ingredients were added from stock solutions to the modified nutritional medium, containing (g/l): 2.5 K2HPO4, 10.9 KH2PO4, 2 NaHCO3, 2 yeast extract, 2 peptone, 1 mucin, 0.5 cysteine, 2 Tween 80, 2 glucose, 2 starch, 2 cellobiose, 0.1 NaCl, 0.01 MgSO4·7H2O, 0.01 CaCl2·6H2O, 0.05 hemin, 0.5 bile salts.
The other compounds were prepared in ethanol: • Vitamin K1 (VK1), • MEG-3 0080 EE Oil (MEG-3 0080 EE), • MEG-3 4535 EE Oil (MEG-3 4535 EE), • MEG-3 8000 EE Oil (MEG-3 8000 EE).
as §1
Short chain fatty acids (SCFA) are an assessment of the microbial carbohydrate metabolism (acetate, propionate and butyrate) or protein metabolism (branched SCFA) and can be compared to typical fermentation patterns for normal GI microbiota. Samples for SCFA analysis were analyzed after 0, 6, 24 and 48 h of incubation for both set of in vitro experiments, above.
SCFA were extracted from the samples with diethyl ether, after the addition of 2-methyl hexanoic acid as an internal standard. Extracts were analysed using a GC-2014 gas chromatograph (Shimadzu's-Hertogenbosch, the Nether-lands), equipped with a capillary fatty acid-free EC-1000Econo-Cap column (dimensions: […]×0.53 mm, film thickness […]; Alltech, Laarne, Belgium), a flame ionization detector and a split injector. The injection volume was […] and the temperature profile was set from 110 to 160° C., with a temperature increase of 6° C. min-1. The carrier gas was nitrogen and the temperature of the injector and detector were […] and 220° C., respectively. The production of unbranched and branched SCFA was calculated by summing the molar concentrations of acetate, propionate, butyrate, valerate and caproate, and summing isobutyrate, isovalerate and isocaproate molar concentrations, respectively. The total SCFA production was defined as the sum of unbranched and branched SCFA.

HT29 cells = experiment: HT29 cell culture, quantification of immunological biomarkers; type: cell-based; conditions: effluent from 24 h fermentation, vs corresponding control
Protocol: as §1, with “([…]), […]” for “(0 h fermentation) and after fermentation (48 h fermentation), sterilized by filtering through 0.22 μm filters and used for short chain fatty acids (SCFA), quantification of immunological biomarkers and in vitro analysis in”
For both sets of in vitro experiments, HT29 cells were obtained from American Type Culture Collection (Manassas, VA). Cells were cultured in DMEM supplemented with 10% fetal bovine serum (FBS), 50 units/ml penicillin, 50 μg/ml streptomycin, L-glutamine, and nonessential amino acids (Life Technologies Europe B.V., Zug, Switzerland). Cells were seeded into 12-well plates at 8×10^5 cells per well and used after 2 days of preculture. They were starved in DMEM containing 0.25% FBS for 18 h before treatment. Cells were treated for 24 hours with TNF-α at 100 ng/mL or fermentation supernatants which were sterile filtered and diluted 1:20 in DMEM containing 0.25% FBS. All treatments were done in triplicate. Consequently, cytokines, chemokines and interleukins were quantified in HT29 supernatants using the Luminex Technology (LiquiChip Workstation IS 200, Qiagen, Hilden, Germany) with Bio-Plex Pro Human Cytokine Panel kits (Bio-Rad, Hercules, CA) or with Luminex Screening Assay kits (R&D Systems, Inc., Minneapolis, MN), following the manufacturer's instructions. The data were acquired with the Luminex IS 2.3 software and evaluated with the LiquiChip Analyser software (Qiagen, Hilden, Germany).

[4] = tested on: genes involved in Acetyl-CoA fermentation to Butyrate pathway; experiment: Shotgun sequencing functional analysis: butyrate pathway genes (first set); type: cell-based, human; conditions: 0.2× dose; after 24 h fermentation; vs corresponding control
Protocol: as §1, §2, §3, §4

[5] = tested on: colonic microbiota (fecal inoculum of two healthy adults); experiment: 16S-targeted Illumina sequencing with flow cytometry, taxa abundance (second set); type: cell-based, human; conditions: 24 h fermentation
Protocol: (§5) In a second set of in vitro experiments, at the start of the short-term colonic incubations, the test ingredients were added to nutritional medium containing basal nutrients present in the colon (e.g. host-derived glycans such as mucin). Three doses were tested per product. The nutritional medium used for this particular project was again supplemented with NaCl, MgSO4, CaCl2, hemin and bile salts, and with carbon sources glucose, starch and cellobiose. A blank, containing the same nutritional medium as that used for the product incubations, but without product addition, was included for each donor. In doing so, an assessment can be made of the background activity of the bacterial community, which results from fermentation of compounds in the nutritional medium. As a source of the colonic microbiota a fecal inoculum of two healthy adults was added. Incubations were performed for 48 h at 37′C, under shaking (90 rpm) and anaerobic conditions and protected from light. […] For the second set of in vitro experiments, two techniques were combined according to Vandeputte et al.

[6] = tested on: colonic microbiota (fecal inoculum of two healthy adults); experiment: Microbiome diversity, alpha and beta (second set); type: cell-based, human
Protocol: as §5

Structure (SMILES): C=C1CC[C@H](O)C/C1=C/C=C1\CCC[C@]2(C)[C@@H]([C@H](C)CCCC(C)C)CC[C@@H]12 [Vitamin D, Vitamin D3]
- TEER, apical induction of leaky gut cellular model [1]: increase TEER
- microbiome alpha diversity (Shannon diversity index) ([2]; 0.2× dose): increase microbiome diversity
- microbiome alpha diversity (Shannon diversity index) ([2]; 5× dose): increase microbiome diversity
- Bifidobacterium relative abundance (Bifidobacterium; 0.2× dose): increase Bifidobacterium relative abundance
- Bifidobacterium relative abundance (Bifidobacterium; 5× dose): increase Bifidobacterium relative abundance
- butyrate production ([3]; 0.2× dose): increase butyrate production
- butyrate production ([3]; 1× dose): increase butyrate production
- propionate production ([3]; 1× dose): increase propionate production
- total SCFAs production ([3]; 1× dose): increase total SCFAs production
- propionate production ([3]; 5× dose): increase propionate production
- total SCFAs production ([3]; 5× dose): increase total SCFAs production
- MIP3A-CCL20 production by HT29 cells (HT29 cells; 0.2× dose): increase MIP3A-CCL20 production
- MIP3A-CCL20 production by HT29 cells (HT29 cells; 1× dose): increase MIP3A-CCL20 production
- MIP3A-CCL20 production by HT29 cells (HT29 cells; 5× dose): increase MIP3A-CCL20 production
- relative abundance of genes involved in Acetyl-CoA fermentation to Butyrate pathway [4]: increase relative abundance

Structure (SMILES): O=C(O)CCCC[C@@H]1SC[C@@H]2NC(=O)N[C@@H]21 [biotin, D-Biotin]
- Erysipelotrichaceae relative abundance ([5]; 0.2× dose, donor C): increase Erysipelotrichaceae relative abundance
- Akkermansiaceae relative abundance ([5]; 0.2× dose, donor D): increase Akkermansiaceae relative abundance
- Bifidobacteriaceae relative abundance ([5]; 0.2× dose, donor D): increase Bifidobacteriaceae relative abundance
- Faecalibacterium prausnitzii relative abundance ([5]; 0.2× dose, donor D): increase Faecalibacterium prausnitzii relative abundance
- Erysipelotrichaceae relative abundance ([5]; 1× dose, donor C): increase Erysipelotrichaceae relative abundance
- Barnesiellaceae relative abundance ([5]; 1× dose, donor D): increase Barnesiellaceae relative abundance
- Bifidobacteriaceae relative abundance ([5]; 1× dose, donor D): increase Bifidobacteriaceae relative abundance
- Faecalibacterium prausnitzii relative abundance ([5]; 1× dose, donor D): increase Faecalibacterium prausnitzii relative abundance
- Bifidobacteriaceae relative abundance ([5]; 5× dose, donor D): increase Bifidobacteriaceae relative abundance
- Faecalibacterium prausnitzii relative abundance ([5]; 5× dose, donor D): increase Faecalibacterium prausnitzii relative abundance
- alpha-diversity (Shannon diversity index) ([6]; 0.2× dose, both donors): increases alpha-diversity
- beta-diversity (Bray-Curtis distance to control) ([6]; 1× dose, both donors): increases beta-diversity
- alpha-diversity (Shannon diversity index) ([6]; 5× dose, donor D): increases alpha-diversity
- beta-diversity (Bray-Curtis distance to control) ([6]; 5× dose, donor D): increases beta-diversity

Structure (SMILES): Cc1ncc(C[n+]2csc(CCO)c2C)c(N)n1 [thiamine, Thiamine Hydrochloride]
- Akkermansiaceae relative abundance ([5]; 1× dose, donor C): increase Akkermansiaceae relative abundance
- Erysipelotrichaceae relative abundance ([5]; 5× dose, donor C): increase Erysipelotrichaceae relative abundance
- alpha-diversity (Shannon diversity index) ([6]; 0.2× dose, donor C): increases alpha-diversity
- alpha-diversity (Shannon diversity index) ([6]; 1× dose, donor C): increases alpha-diversity
- beta-diversity (Bray-Curtis distance to control) ([6]; 1× dose, donor C): increases beta-diversity
- beta-diversity (Bray-Curtis distance to control) ([6]; 5× dose, donor D): increases beta-diversity

Structure (SMILES): Cc1ncc(CO)c(CO)c1O.Cl [pyridoxine, Pyridoxine Hydrochloride]
- Akkermansiaceae relative abundance ([5]; 0.2× dose, donor D): increase Akkermansiaceae relative abundance
- Faecalibacterium prausnitzii relative abundance ([5]; 0.2× dose, donor D): increase Faecalibacterium prausnitzii relative abundance
- Erysipelotrichaceae relative abundance ([5]; 1× dose, donor C): increase Erysipelotrichaceae relative abundance
- Akkermansiaceae relative abundance ([5]; 1× dose, donor D): increase Akkermansiaceae relative abundance
- Bifidobacteriaceae relative abundance ([5]; 1× dose, donor D): increase Bifidobacteriaceae relative abundance
- Faecalibacterium prausnitzii relative abundance ([5]; 1× dose, donor D): increase Faecalibacterium prausnitzii relative abundance
- Prevotellaceae relative abundance ([5]; 5× dose, donor C): increase Prevotellaceae relative abundance
- Akkermansiaceae relative abundance ([5]; 5× dose, donor D): increase Akkermansiaceae relative abundance
- Bifidobacteriaceae relative abundance ([5]; 5× dose, donor D): increase Bifidobacteriaceae relative abundance
- Faecalibacterium prausnitzii relative abundance ([5]; 5× dose, donor D): increase Faecalibacterium prausnitzii relative abundance
- Veillonellaceae relative abundance ([5]; 5× dose, donor D): increase Veillonellaceae relative abundance
- beta-diversity (Bray-Curtis distance to control) ([6]; 0.2× dose, donor D): increases beta-diversity
- beta-diversity (Bray-Curtis distance to control) ([6]; 1× dose, donor D): increases beta-diversity
- alpha-diversity (Shannon diversity index) ([6]; 5× dose, donor D): increases alpha-diversity
- beta-diversity (Bray-Curtis distance to control) ([6]; 5× dose, donor D): increases beta-diversity

Structure (SMILES): NC(=O)c1cccnc1 [niacinamide, Niacinamide]
- Akkermansiaceae relative abundance ([5]; 0.2× dose, donor C): increase Akkermansiaceae relative abundance
- Erysipelotrichaceae relative abundance ([5]; 1× dose, donor C): increase Erysipelotrichaceae relative abundance
- Erysipelotrichaceae relative abundance ([5]; 5× dose, donor C): increase Erysipelotrichaceae relative abundance
- beta-diversity (Bray-Curtis distance to control) ([6]; 0.2× dose, donor D): increases beta-diversity
- alpha-diversity (Shannon diversity index) ([6]; 1× dose, donor C): increases alpha-diversity
- beta-diversity (Bray-Curtis distance to control) ([6]; 5× dose, donor D): increases beta-diversity
